Source: PubChem BioAssay (NCI)
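Dose response: 5 concentrations. Exposure: 48 h. Format: 96-well plates. Endpoint: linear interpolation; highest concentration if not reached. Abbreviation: GI50, concentration required for 50% inhibition of growth. TGI is the concentration that stops growth completely.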

Tests used:
Assay in all cases: NCI tumour cell line growth inhibition, 48 h
[1] = test system: 786-0 renal
[2] = test system: A498 renal
[3] = test system: A549 NSCLC
[4] = test system: ACHN renal
[5] = test system: BT-549 breast
[6] = test system: CAKI-1 renal
[7] = test system: CCRF-CEM leukemia
[8] = test system: COLO 205 colon
[9] = test system: DU-145 prostate
[10] = test system: EKVX NSCLC
[11] = test system: HCC-2998 colon
[12] = test system: HCT-116 colon
[13] = test system: HCT-15 colon
[14] = test system: HL-60(TB) leukemia
[15] = test system: HOP-62 NSCLC
[16] = test system: HOP-92 NSCLC
[17] = test system: HS 578T breast
[18] = test system: HT29 colon
[19] = test system: IGROV1 ovarian
[20] = test system: K-562 leukemia
[21] = test system: KM12 colon
[22] = test system: LOX IMVI melanoma
[23] = test system: M14 melanoma
[24] = test system: MALME-3M melanoma
[25] = test system: MCF7 breast
[26] = test system: MDA-MB-231 breast
[27] = test system: MDA-MB-435
[28] = test system: MOLT-4 leukemia
[29] = test system: NCI-H226 lung
[30] = test system: NCI-H460 lung
[31] = test system: NCI-H522 lung
[32] = test system: OVCAR-4 ovarian
[33] = test system: OVCAR-5 ovarian
[34] = test system: OVCAR-8 ovarian
[35] = test system: PC-3 prostate
[36] = test system: RPMI-8226 leukemia
[37] = test system: RXF 393 renal
[38] = test system: SF-268 CNS
[39] = test system: SF-295 CNS
[40] = test system: SF-539 CNS
[41] = test system: SK-MEL-2 melanoma
[42] = test system: SK-MEL-28 melanoma
[43] = test system: SK-MEL-5 melanoma
[44] = test system: SK-OV-3 ovarian
[45] = test system: SNB-19 CNS
[46] = test system: SNB-75 CNS
[47] = test system: SR leukemia
[48] = test system: SW-620 colon
[49] = test system: T-47D breast
[50] = test system: TK-10 renal
[51] = test system: U251 CNS
[52] = test system: UACC-257 melanoma
[53] = test system: UACC-62 melanoma
[54] = test system: UO-31 renal

Structure (SMILES): Cc1ccc(N2CCN(C3=C(Cl)C(=O)c4ncccc4C3=O)CC2)cc1
- GI50 [1]: 3.35 µM
- TGI [1]: 10.2 µM
- GI50 [2]: 15 µM
- TGI [2]: 28.4 µM
- GI50 [3]: 15 µM
- TGI [3]: 33.3 µM
- GI50 [4]: 1.61 µM
- TGI [4]: 2.96 µM
- GI50 [5]: 5.51 µM
- TGI [5]: 17.3 µM
- GI50 [6]: 1.68 µM
- TGI [6]: 3.09 µM
- GI50 [7]: 2.21 µM
- TGI [7]: 7.09 µM
- GI50 [8]: 1.84 µM
- TGI [8]: 3.33 µM
- GI50 [9]: 6.05 µM
- TGI [9]: 18.3 µM
- GI50 [10]: 1.73 µM
- TGI [10]: 3.14 µM
- GI50 [11]: 1.77 µM
- TGI [11]: 3.38 µM
- GI50 [12]: 1.62 µM
- TGI [12]: 2.97 µM
- GI50 [13]: 1.54 µM
- TGI [13]: 3.28 µM
- GI50 [14]: 1.35 µM
- TGI [14]: 3.87 µM
- GI50 [15]: 15.4 µM
- TGI [15]: 29.4 µM
- GI50 [16]: 1.63 µM
- TGI [16]: 3.17 µM
- GI50 [17]: 3.64 µM
- TGI [17]: 34.5 µM
- GI50 [18]: 5.05 µM
- TGI [18]: 19.3 µM
- GI50 [19]: 1.74 µM
- TGI [19]: 3.21 µM
- GI50 [20]: 1.35 µM
- TGI [20]: 8.53 µM
- GI50 [21]: 17.5 µM
- TGI [21]: 32 µM
- GI50 [22]: 1.52 µM
- TGI [22]: 2.91 µM
- GI50 [23]: 1.84 µM
- TGI [23]: 3.69 µM
- GI50 [24]: 1.77 µM
- TGI [24]: 3.34 µM
- GI50 [25]: 1.22 µM
- TGI [25]: 3.23 µM
- GI50 [26]: 1.59 µM
- TGI [26]: 3.09 µM
- GI50 [27]: 1.91 µM
- TGI [27]: 3.51 µM
- GI50 [28]: 2.09 µM
- TGI [28]: 5.59 µM
- GI50 [29]: 10.1 µM
- TGI [29]: 26.5 µM
- GI50 [30]: 4.49 µM
- TGI [30]: 22.6 µM
- GI50 [31]: 1.76 µM
- TGI [31]: 3.53 µM
- GI50 [32]: 1.68 µM
- TGI [32]: 3.29 µM
- GI50 [33]: 3.36 µM
- TGI [33]: 11.4 µM
- GI50 [34]: 1.6 µM
- TGI [34]: 2.99 µM
- GI50 [35]: 2.85 µM
- TGI [35]: 11.9 µM
- GI50 [36]: 2.14 µM
- TGI [36]: 5.79 µM
- GI50 [37]: 1.79 µM
- TGI [37]: 3.23 µM
- GI50 [38]: 5.91 µM
- TGI [38]: 22.2 µM
- GI50 [39]: 2.12 µM
- TGI [39]: 4.86 µM
- GI50 [40]: 1.85 µM
- TGI [40]: 3.5 µM
- GI50 [41]: 2.11 µM
- TGI [41]: 4.48 µM
- GI50 [42]: 2.35 µM
- TGI [42]: 5.25 µM
- GI50 [43]: 1.86 µM
- TGI [43]: 3.77 µM
- GI50 [44]: 12.8 µM
- TGI [44]: 25.8 µM
- GI50 [45]: 13.4 µM
- TGI [45]: 26.4 µM
- GI50 [46]: 12.8 µM
- TGI [46]: 33.3 µM
- GI50 [47]: 0.504 µM
- TGI [47]: 4.8 µM
- GI50 [48]: 1.47 µM
- TGI [48]: 3.08 µM
- GI50 [49]: 1.61 µM
- TGI [49]: 4.04 µM
- GI50 [50]: 7.15 µM
- TGI [50]: 18.1 µM
- GI50 [51]: 1.79 µM
- TGI [51]: 3.42 µM
- GI50 [52]: 1.75 µM
- TGI [52]: 3.3 µM
- GI50 [53]: 1.84 µM
- TGI [53]: 3.6 µM
- GI50 [54]: 1.53 µM
- TGI [54]: 3.11 µM
